In experiment [1] the target is T1, neuronal nicotinic acetylcholine receptors (Rattus norvegicus, UniProt P09483+P12390).
T1 construct: crude synaptic membrane preparations from whole rat brain; from tissue; host or cells: whole rat brain, crude synaptic membranes
As to the kind of experiment: Binding of [3H]-cytisine to neuronal nicotinic acetylcholine receptors, crude synaptic membranes from whole rat brain. Here is the method:
The In Vitro protocols for determination of nicotinic acetylcholine channel receptor binding potencies of ligands were determined as follows.
Washed membranes were stored at −80° C. prior to use. Frozen aliquots were slowly thawed and resuspended in 20 volumes of buffer (containing: 120 mM NaCl, 5 mM KCl, 2 mM MgCl2, 2 mM CaCl2 and 50 mM Tris-Cl, pH 7.4 @[…]). After centrifuging at 20,000×g for 15 minutes, the pellets were resuspended in 30 volumes of buffer.
The test compounds were dissolved in water to make 10 mM stock solutions. Each solution was then diluted (1:100) with buffer (as above) and further taken through seven serial log dilutions to produce test solutions from 10^−5 to 10^−11 M.
Samples were incubated for 60 minutes at 4° C., then rapidly filtered through Whatman GF/B filters presoaked in 0.5% polyethyleneimine using 3×4 mL of ice-cold buffer. The filters are counted in 4 mL of Ecolume® (ICN). Nonspecific binding was determined in the presence of 10 μM (−)-nicotine and values were expressed as a percentage of total binding. IC50 values were determined with the RS-1 (BBN) nonlinear least squares curve-fitting program and IC50 values were converted to Ki values using the Cheng and Prusoff correction (Ki=IC50/(1+[ligand]/Kd of ligand).

Another experiment concerns Male Sprague-Dawley rats. Kind of experiment: Formalin test (analgesia). The experiment is classed as in vivo. To be noted: Rattus norvegicus, ip, intraperitoneally 5 minutes before injection of 50 μL 5% formalin into rear paw, nocifensive behaviors, read-out: (MED) minimally effective dose, formalin test. As to the method:
Another in vivo protocol utilized to determine the effectiveness of nicotinic acetylcholine receptor ligands as analgesic agents was the formalin test.
Male Sprague-Dawley rats (Charles River, Portage, Mich.) weighing 200 to 400 grams were used for all experiments. After a 20 minute period of acclimation to individual cages, 50 μL of a 5% formalin solution was injected subcutaneous into the dorsal aspect of one of the rear paws and the rats were then returned to the clear observation cages suspended above mirror panels. […] Phase 1 of the formalin test was defined as the period of time immediately after injection of formalin until 10 minutes after the formalin injection (i.e., 0-10 minutes after formalin). Phase 2 was defined as the 20 minute period from 30 to 50 minutes after formalin injection. The investigator recorded nocifensive behaviors in the injected paw of four animals during the session by observing each animal for one 15 second observation period during each 1 minute interval. Nocifensive behaviors recorded included flinching, licking or biting the injected paw. In dose-response studies, the test compound (or saline) was administered intraperitoneally 5 minutes before injection of formalin.

In another experiment the test system is mice. As to the kind of experiment: Mouse hot plate paradigm (analgesia). It counts as in vivo. To be noted: ip, 0.5 h, intraperitoneal, dosed 30 minutes prior to testing, hot plate 55° C., latency until the tenth jump, read-out: (MED) minimally effective dose, mouse hot plate. As to the method:
An in vivo protocol was utilized to determine the effectiveness of nicotinic acetylcholine receptor ligands as analgesic agents in the mouse hot plate paradigm.
Separate groups of mice, (n=8/group) were utilized for each dose group. All drugs were administered by the intraperitoneal route of administration. Test drugs were dissolved in water to make a 6.2 mM stock solution. Animals were dosed with this solution (10 mL/kg body weight) for a 62 micromol/kg dose. Lower doses were administered similarly, following serial dilution of the stock solution in half-log increments. Animals were dosed 30 minutes prior to testing in the hot plate. The hot-plate utilized was an automated analgesia monitor (Model #AHP16AN, Omnitech Electronics, Inc. of Columbus, Ohio). The temperature of the hot plate was maintained at 55° C. and a cut-off time of 180 seconds was utilized. Latency until the tenth jump was recorded as the dependent measure. An increase in the tenth jump latency relative to the control was considered an effect.

Where a name gives a salt, the structure may show the parent alone. Some results are limits rather than exact numbers.

The values that follow come from patent publication US8119635B2, “Diazabicyclic central nervous system active agents” (Abbott Laboratories, priority 2000, dated 2012).

T1 sequence (P09483 31-630): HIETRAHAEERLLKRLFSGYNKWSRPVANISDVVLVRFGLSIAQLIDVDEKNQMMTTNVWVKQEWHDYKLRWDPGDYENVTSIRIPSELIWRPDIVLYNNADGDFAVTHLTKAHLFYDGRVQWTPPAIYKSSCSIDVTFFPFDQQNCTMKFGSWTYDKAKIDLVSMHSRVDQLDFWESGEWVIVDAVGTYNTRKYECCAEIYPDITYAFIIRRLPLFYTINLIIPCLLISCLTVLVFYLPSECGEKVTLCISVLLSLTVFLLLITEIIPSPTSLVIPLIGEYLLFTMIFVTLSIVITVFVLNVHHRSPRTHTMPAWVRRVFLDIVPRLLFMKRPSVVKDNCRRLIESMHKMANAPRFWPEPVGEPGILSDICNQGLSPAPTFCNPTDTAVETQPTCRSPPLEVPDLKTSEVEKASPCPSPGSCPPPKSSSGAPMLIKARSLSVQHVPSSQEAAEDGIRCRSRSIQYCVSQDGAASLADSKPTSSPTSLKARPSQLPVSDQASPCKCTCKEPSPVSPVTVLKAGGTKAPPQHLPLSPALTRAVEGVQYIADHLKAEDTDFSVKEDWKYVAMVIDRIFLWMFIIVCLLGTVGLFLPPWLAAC
T1 sequence (P12390 25-500): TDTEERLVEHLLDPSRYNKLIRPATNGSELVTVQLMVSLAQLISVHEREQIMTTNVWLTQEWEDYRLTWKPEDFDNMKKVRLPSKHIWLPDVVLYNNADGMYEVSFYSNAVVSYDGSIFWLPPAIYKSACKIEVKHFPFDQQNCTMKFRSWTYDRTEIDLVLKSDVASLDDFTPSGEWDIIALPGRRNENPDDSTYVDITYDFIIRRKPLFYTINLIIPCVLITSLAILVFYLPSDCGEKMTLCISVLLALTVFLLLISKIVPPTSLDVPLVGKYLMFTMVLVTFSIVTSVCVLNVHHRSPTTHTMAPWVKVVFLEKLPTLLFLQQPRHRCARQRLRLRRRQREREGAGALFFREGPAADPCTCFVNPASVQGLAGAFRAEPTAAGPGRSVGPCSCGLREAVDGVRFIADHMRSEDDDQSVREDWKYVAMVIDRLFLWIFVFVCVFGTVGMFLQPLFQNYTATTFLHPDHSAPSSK

Molecule `Clc1ccc(N2C[C@H]3CCN[C@H]3C2)cn1` (relative stereo) [Example 13, cis-5-(6-chloro-3-pyridinyl)octahydropyrrolo[3,4-b]pyrrole hydrochloride] displayed a Ki in experiment [1] of 1.5 nM. In addition, the minimal effective dose with Male Sprague-Dawley rats was determined as 0.62 µmol/kg; in the experiment on mice it was 6.2 µmol/kg.
The corresponding values for `Clc1ccc(N2C[C@H]3CCCN[C@H]3C2)cn1` (relative stereo) [Example 22, cis-6-(6-chloro-3-pyridinyl)octahydro-1H-pyrrolo[3,4-b]pyridine dihydrochloride] are 11 nM, 1.9 µmol/kg and 19 µmol/kg.
In experiment [1], `c1cncc(N2C[C@H]3CCCN[C@H]3C2)c1` (relative stereo) [Example 23, cis-6-(3-pyridinyl)octahydro-1H-pyrrolo[3,4-b]pyridine dihydrochloride] returned a Ki of 4.1 nM. For the same molecule, the minimal effective dose in the experiment on Male Sprague-Dawley rats came out at 0.62 µmol/kg; with mice, 62 µmol/kg.
`c1cncc(N2CC[C@H]3CN[C@H]3C2)c1` (relative stereo) [Example 33, (cis)-3-(3-pyridinyl)-3,8-diazabicyclo[4.2.0]octane tris(4-methylbenzenesulfonate)] gave a Ki in experiment [1] of 0.02 nM. The values for the minimal effective dose with Male Sprague-Dawley rats and in the experiment on mice were 0.62 µmol/kg and 1.9 µmol/kg, respectively.
For `COc1cncc(N2C[C@H]3CNC[C@H]3C2)c1` [Example 7, cis-2-(5-methoxy-3-pyridinyl)octahydropyrrolo[3,4-c]pyrrole dihydrochloride] the same measures were 0.08 nM, 6.2 µmol/kg and 19 µmol/kg.
With `CCCOc1cncc(N2C[C@H]3CNC[C@H]3C2)c1` [Example 9, cis-2-(5-propoxy-3-pyridinyl)octahydropyrrolo[3,4-c]pyrrole semi(fumarate)], the Ki in experiment [1] came to 0.04 nM. Also, the minimal effective dose in the experiment on mice amounted to 19 µmol/kg.
With `COc1cc(N2C[C@H]3CNC[C@H]3C2)cnc1Cl` [Example 10, cis-2-(6-chloro-5-methoxy-3-pyridinyl)octahydropyrrolo[3,4-c]pyrrole dihydrochloride], the Ki in experiment [1] worked out at 0.03 nM. For the same molecule, the minimal effective dose in the experiment on Male Sprague-Dawley rats came out at 1.9 µmol/kg; in the experiment with mice, 6.2 µmol/kg.
In the case of `Cc1cc(N2C[C@H]3CNC[C@H]3C2)cnc1Cl` [Example 11, cis-2-(6-chloro-5-methyl-3-pyridinyl)octahydropyrrolo[3,4-c]pyrrole dihydrochloride], in experiment [1], the Ki was determined as 0.04 nM. Moreover, in the experiment on mice, the minimal effective dose was 6.2 µmol/kg.
`Clc1ccc(N2C[C@H]3CCN[C@H]3C2)cn1` [Example 14, (3aR,6aR)-5-(6-chloro-3-pyridinyl)octahydropyrrolo[3,4-b]pyrrole dihydrochloride] showed a Ki in experiment [1] of 1.1 nM. The results for the minimal effective dose with Male Sprague-Dawley rats and in the experiment with mice were 0.62 µmol/kg and 1.9 µmol/kg, respectively.
On to `Cc1cc(N2C[C@@H]3CCN[C@@H]3C2)cnc1Cl` [Example 26, (3aS,6aS)-5-(6-chloro-5-methyl-3-pyridinyl)octahydropyrrolo[3,4-b]pyrrole hydrochloride], for which affinity in experiment [1] was put at a Ki of 0.62 nM. Besides, the minimal effective dose with mice is 19 µmol/kg.
For the molecule `Cc1cc(N2C[C@H]3CCN[C@H]3C2)cnc1Cl` [Example 27, (3aR,6aR)-5-(6-chloro-5-methyl-3-pyridinyl)octahydropyrrolo[3,4-b]pyrrole hydrochloride], the Ki in experiment [1] is 0.1 nM. Further, the minimal effective dose in the experiment on mice was found to be 1.9 µmol/kg.
`COc1cncc(N2C[C@H]3CNC[C@H]32)c1` [Example 86, (1R,5S)-6-(5-methoxy-3-pyridinyl)-3,6-diazabicyclo[3.2.0]heptane 4-methylbenzenesulfonate] came in with a Ki in experiment [1] of 0.75 nM. In addition, the minimal effective dose with Male Sprague-Dawley rats was > 19 µmol/kg.
In the case of `Cc1cc(N2C[C@H]3CNC[C@H]32)cnc1Cl` [Example 87, (1R,5S)-6-(6-chloro-5-methyl-3-pyridinyl)-3,6-diazabicyclo[3.2.0]heptane 4-methylbenzenesulfonate], the affinity in experiment [1] corresponds to a Ki of 0.2 nM. Besides, in the experiment with Male Sprague-Dawley rats, the minimal effective dose stood at 6.2 µmol/kg.

For orientation: Ki means a dissociation constant, usually derived from enzyme kinetics or from competition with a known ligand. A lower Ki goes with a stronger hold on the target.
